Results taken from patent US20040081624A1, “Liquid aerosol formulations and aerosol generating devices and methods for generating aerosols” (Chrysalis Technologies Incorporated, priority 2002, published 2004).

Columns and labels:
Assay type in all cases: physicochemical
[1] = Aerosol particle size distribution by cascade impactor (MOUDI) of aerosol from heated capillary passage; conditions: carrier 20 volume % ethanol in water
[2] = Visual inspection of deposited aerosol particles (cascade impactor plates); conditions: carrier containing varying percentages of ethanol in water
Source text: The average MMAD of the aerosol particles was 0.66 microns.
Albuterol aerosol particles produced using a carrier containing varying percentages of ethanol in water as described above were visually analyzed and determined to be dry aerosols.

[3] = Observation of breakdown products / degradation during aerosol generation; conditions: carrier including ethanol; summary of tests
Source text: Clogging of the capillary size passage of the aerosol generating device was not observed during these tests.

average MMAD of the albuterol aerosol particles [1] | nature of aerosol by visual analysis [2] | degradation [3] | Structure (SMILES)
about 3 microns | dry aerosols |  | CC(C)(C)NCC(O)c1ccc(O)c(CO)c1 (stereo not drawn) [albuterol]
 |  | no observable degradation | CCCC1O[C@@H]2C[C@H]3[C@@H]4CCC5=CC(=O)C=C[C@]5(C)[C@H]4[C@@H](O)C[C@]3(C)[C@]2(C(=O)CO)O1 (stereo partly drawn) [budesonide]
